For test [1], the system named is human breast cancer MDA-MB-231 cell line. In words: AlamarBlue cytotoxicity, 2,2′-BPBPA series, MDA-MB-231. The format is cell-based. Conditions: 24, 48, 72 h. On the procedure:
Cell culture methods. MCF-7 and MDA-MB-231 were incubated using DMEM at 37° C. in 5% CO2. The hFOB 1.19 cell lines were incubated with DMEM: F12 at 34° C. in 5% CO2.
Cell lines were supplemented using 10% FBS and 1% Pen-Strep. The media was replaced twice per week. Cell passages were carried out at 80% confluency.
Cell-based assays. Cell lines were seeded in 96 well plates at a density of 5x 10^3 cells/mL and incubated for 24 h before treatment. Cells were treated with 100 μL of 2,2′-BPBPA (0-400 μM), unloaded and loaded nano-Ca@2,2′-BPBPA (6.3-50 μM) for 24, 48, and 72 h.
Control groups were treated with media (DMEM or DMEM: F12) supplemented with 1% Pen-Strep. Cell viability was determined by employing AlamarBLue@. The media was replaced with 100 μL of 10% AlamarBlue® solution. After 24 h of incubation, the fluorescence was assessed at )max of 560 nm for excitation and 590 nm for emission.
Cell culture methods. MCF-7 and MDA-MB-231 were incubated using DMEM at 37° C. in 5% CO2. The hFOB 1.19 cell lines were incubated with DMEM: F12 at 34° C. in 5% CO2. Cell lines were supplemented using 10% FBS and 1% Pen-Strep. The media was replaced twice times per week. Cell passages were carried out at 80% confluency.
Seeding. […]
AlamarBlue@assay. […] Then, the fluorescence was assessed at 560 nm of excitation and λmax 590 nm of emission. […]
(In general: Alamar Blue is a resazurin reagent that responds to reducing activity.)

For test [2] the test system is unchanged. The experiment in a line: AlamarBlue cytotoxicity, BPBPA series, MDA-MB-231. Type of test: cell-based. Conditions: for IC50: Homo sapiens. On the procedure:
Cell culture methods. MCF-7, MDA-MB-231, and hFOB 1.19 cell lines were incubated employing DMEM (37° C.) and DMEM: F12 (34° C.) medium, respectively, in a 5% CO2. Cell lines were supplemented using 10% FBS and 1% Pen-Strep and medium exchange was performed twice a week. Cell passages were carried out at 80% confluency.
Cell-based assays. Cell lines were seeded in 96 well plates at a density of 5×10^3 cells/mL, cells were incubated for 24 h before treatment. Both cell lines were treated with 100 μL of BPBPA (0-400 μM), LET (0-200 μM), unloaded and loaded nano-Ca@BPBPA (0-50 μM). All cell-based assays were performed for 24, 48, and 72 h of treatment. Control groups were treated with media (DMEM or DMEM: F12) supplemented with 1% Pen-Strep. Then, the media was removed and replaced with 100 μL of 10% AlamarBlue® solution. The 96 well plates were incubated for 4 h before measurements. Then, the fluorescence was assessed at 560 nm of excitation and λmax 590 nm of emission. The cell viability (%) was evaluated by contrasting the percentage of live cells of the control groups with the cells treated with BPBPA, LET, unloaded and loaded nano-Ca@BPBPA. The half-maximal inhibitory concentration (IC50) was determined for BPBPA and letrozole employing the dose-response curves (% cell live vs. concentration). The relative cell live (% RCL) was assessed for the unloaded and loaded nano-Ca@BPBPA, utilizing LET as a control group. The IC50 and % RCL were plotted using the GraphPad Prism software vs. 9.3.0.
The cytotoxicity of BPBPA (control), LET (control), nano-Ca@BPBPA (control), and drug-loaded nano-Ca@BPBPA (experimental) was investigated employing the human breast cancer, MCF-7 and MDA-MB-231, and the human osteoblast, hFOB 1.19, cell lines. The human MCF-7 cell line represents an ER-positive breast cancer model with estrogen, progesterone, and glucocorticoid receptors.^1 While, the human MDA-MB-231 cells correspond to a model of ER-negative breast cancer. Both selected cancer cell lines can be implicated in the development and progress of bone metastases in patients.^40,41 The human fetal hFOB 1.19 cells represent a homogeneous osteoblast-like (non-cancerous) model commonly employed to assess osteoblast differentiation.^42 The cytotoxicity of these materials was evaluated by determining the IC50 and % RCL. […] Similar results were found for MDA-MB-231 and hFOB 1.19 cell lines treated with LET (IC50 >200 μM) at the same time points (Supporting Information).
Cell culture methods. MCF-7 and MDA-MB-231 were incubated employing DMEM media at 37° C. in 5% CO2. The hFOB 1.19 cell lines were incubated using DMEM: F12 at 34° C. in 5% CO2. Cell lines were supplemented using 10% FBS and 1% Pen-Strep. The media was exchanged twice per week. Cell passages were carried out at 80% confluency.
Seeding. Cell lines were seeded in 96 well plates at a density of […] cells/mL; cells were incubated for 24 h before each treatment.
Treatment. Cell lines were treated with 100 μL of BPBPA (0-400 μM), LET (0-200 μM), unloaded and loaded nano-Ca@BPBPA (0.5-50 μM). Control groups were treated with media (DMEM or DMEM: F12) supplemented with 1% Pen-Strep. All cell-based assays were performed after 24, 48, and 72 h of treatment and in triplicate.
AlamarBlue@assay. To determine the cell viability, the media was removed and replaced with 100 μL of 10% AlamarBlue® solution. The 96 well plates were incubated for 4 h before measurements. Then, the fluorescence was assessed at 560 nm of excitation and λmax 590 nm of emission.

A value given as a limit tells only on which side of the number the result lay.

One may read the IC50 as the concentration that gives 50% inhibition. A low value points to greater potency in that assay.

For the compound `O=P(O)(O)c1ccc(-c2ccc(P(=O)(O)O)cn2)nc1` [2,2′-BPBPA, 2,2′-bipyridine-5,5′-bisphosphonic acid], in test [1], the IC50 is > 200 µM.
As for `N#Cc1ccc(C(c2ccc(C#N)cc2)n2cncn2)cc1` [LET, letrozole], the “% RCL” value is listed as 99±1% in test [2] (12.5 μM, 72 h); ~86% in test [2] (50 μM, 24 h); ~83% in test [2] (50 μM, 48 h); ~82% in test [2] (50 μM, 72 h). Also, the IC50 in test [2] (24 h), in test [2] (48 h) and in test [2] (72 h) was > 200 µM throughout.

For the origin of these results see patent US20250296942A1, “Phosphonate-Based Coordination Complexes and Methods of Preparation and Use Thereof” (University of Puerto Rico, priority 2021, published 2025).
